# HELM strings list units from the 5' end as sugar, base in round brackets, then linkage (d deoxyribose, r ribose, m 2'-O-methyl, p phosphodiester). Strings are as the collection lists them; they lack the last nucleoside at the 3' end of the tested compound. [moe] = 2'-O-(2-methoxyethyl) (MOE); [sp] = phosphorothioate linkage; [m5C] = 5-methylcytosine
# Target: SCN2A
# Assay: mouse, dose not given
# Conditions: ASO
row,Substance,3 h FOB score
1,RNA1{[moe](A)[sp].[moe](T)p.[moe](G)p.[moe](T)p.[moe](A)p.[moe](A)p.d([m5C])[sp].d([m5C])[sp].d(T)[sp].d(T)[sp].d(T)[sp].d(A)[sp].d(T)[sp].d(A)[sp].d([m5C])[sp].d(A)[sp].[moe](T)p.[moe](T)[sp].[moe](T)}$$$$ (last 3' nucleoside missing),0 score 0-7
2,RNA1{[moe](T)[sp].[moe](T)p.[moe](G)p.[moe](A)p.[moe]([m5C])p.d([m5C])[sp].d(A)[sp].d([m5C])[sp].d(G)[sp].d([m5C])[sp].d(T)[sp].d(T)[sp].d(A)[sp].d([m5C])[sp].d(A)[sp].[moe](T)p.[moe]([m5C])p.[moe](A)[sp].[moe](A)}$$$$ (last 3' nucleoside missing),2 score 0-7
3,RNA1{[moe](A)[sp].[moe]([m5C])p.[moe](A)p.[moe](T)p.d(A)[sp].d(T)[sp].d(T)[sp].d(T)[sp].d(T)[sp].d(T)[sp].d([m5C])[sp].d(T)[sp].d(A)[sp].d([m5C])[sp].[moe](A)p.[moe]([m5C])p.[moe](T)p.[moe](G)[sp].[moe]([m5C])}$$$$ (last 3' nucleoside missing),0.33 score 0-7
4,RNA1{[moe](A)[sp].[moe](T)p.[moe](G)p.[moe](G)p.[moe](T)p.d(T)[sp].d(G)[sp].d(G)[sp].d(A)[sp].d(A)[sp].d(A)[sp].d(T)[sp].d(A)[sp].d([m5C])[sp].d(A)[sp].[moe](G)p.[moe]([m5C])p.[moe](T)[sp].[moe](G)}$$$$ (last 3' nucleoside missing),1 score 0-7
5,RNA1{[moe]([m5C])[sp].[moe](T)p.[moe]([m5C])p.[moe](T)p.[moe](T)p.[moe](T)p.d([m5C])[sp].d(T)[sp].d(T)[sp].d(A)[sp].d(T)[sp].d(T)[sp].d(T)[sp].d([m5C])[sp].d(T)[sp].d(G)[sp].[moe](T)p.[moe](T)[sp].[moe](T)}$$$$ (last 3' nucleoside missing),1 score 0-7
6,RNA1{[moe]([m5C])[sp].[moe]([m5C])p.[moe](A)p.[moe]([m5C])p.d(G)[sp].d([m5C])[sp].d(T)[sp].d(T)[sp].d(A)[sp].d([m5C])[sp].d(A)[sp].d(T)[sp].d([m5C])[sp].d(A)[sp].[moe](A)p.[moe](A)p.[moe]([m5C])p.[moe](A)[sp].[moe](T)}$$$$ (last 3' nucleoside missing),0 score 0-7
7,RNA1{[moe](T)[sp].[moe](G)p.[moe]([m5C])p.[moe](A)[sp].d(T)[sp].d(G)[sp].d(T)[sp].d(A)[sp].d(A)[sp].d([m5C])[sp].d([m5C])[sp].d(T)[sp].[moe](T)p.[moe](T)p.[moe](A)p.[moe](T)[sp].[moe](A)}$$$$ (last 3' nucleoside missing),0 score 0-7
8,RNA1{[moe]([m5C])[sp].[moe](G)p.[moe](T)p.[moe]([m5C])p.d(T)[sp].d([m5C])[sp].d(T)[sp].d(T)[sp].d(T)[sp].d([m5C])[sp].d(T)[sp].d(T)[sp].d(A)[sp].d(T)[sp].[moe](T)p.[moe](T)p.[moe]([m5C])p.[moe](T)[sp].[moe](G)}$$$$ (last 3' nucleoside missing),1 score 0-7
9,RNA1{[moe](A)[sp].[moe](G)p.[moe]([m5C])p.[moe](A)p.[moe](T)p.[moe](G)p.d(T)[sp].d(T)[sp].d(T)[sp].d(A)[sp].d(T)[sp].d([m5C])[sp].d(T)[sp].d(T)[sp].d(A)[sp].d(G)[sp].[moe](T)p.[moe](T)[sp].[moe]([m5C])}$$$$ (last 3' nucleoside missing),1 score 0-7
10,RNA1{[moe](A)[sp].[moe]([m5C])p.[moe]([m5C])p.[moe](A)p.d([m5C])[sp].d(G)[sp].d([m5C])[sp].d(T)[sp].d(T)[sp].d(A)[sp].d([m5C])[sp].d(A)[sp].d(T)[sp].d([m5C])[sp].[moe](A)p.[moe](A)p.[moe](A)p.[moe]([m5C])[sp].[moe](A)}$$$$ (last 3' nucleoside missing),0 score 0-7
11,RNA1{[moe]([m5C])[sp].[moe](T)p.[moe](G)p.[moe]([m5C])[sp].d(A)[sp].d(T)[sp].d(G)[sp].d(T)[sp].d(A)[sp].d(A)[sp].d([m5C])[sp].d([m5C])[sp].[moe](T)p.[moe](T)p.[moe](T)p.[moe](A)[sp].[moe](T)}$$$$ (last 3' nucleoside missing),1 score 0-7
12,RNA1{[moe](G)[sp].[moe](A)p.[moe](A)p.[moe](A)p.[moe](G)p.d(T)[sp].d(A)[sp].d(G)[sp].d(T)[sp].d(A)[sp].d([m5C])[sp].d([m5C])[sp].d(A)[sp].d(T)[sp].d(T)[sp].[moe]([m5C])p.[moe]([m5C])p.[moe]([m5C])[sp].[moe](A)}$$$$ (last 3' nucleoside missing),1.67 score 0-7
13,RNA1{[moe]([m5C])[sp].[moe](A)p.[moe](T)p.[moe](G)p.[moe](T)p.d(A)[sp].d(A)[sp].d([m5C])[sp].d([m5C])[sp].d(T)[sp].d(T)[sp].d(T)[sp].d(A)[sp].d(T)[sp].d(A)[sp].[moe]([m5C])p.[moe](A)p.[moe](T)[sp].[moe](T)}$$$$ (last 3' nucleoside missing),0 score 0-7
14,RNA1{[moe](G)[sp].[moe](A)p.[moe](A)p.[moe](T)p.[moe](T)p.d([m5C])[sp].d(T)[sp].d(A)[sp].d(T)[sp].d(T)[sp].d(T)[sp].d(T)[sp].d(A)[sp].d(T)[sp].d(A)[sp].[moe](A)p.[moe](A)p.[moe](T)[sp].[moe](G)}$$$$ (last 3' nucleoside missing),1 score 0-7
15,RNA1{[moe]([m5C])[sp].[moe](A)p.[moe](T)p.[moe](A)p.[moe](A)p.d(T)[sp].d([m5C])[sp].d([m5C])[sp].d([m5C])[sp].d(A)[sp].d(T)[sp].d(T)[sp].d(A)[sp].d(T)[sp].d(A)[sp].[moe]([m5C])p.[moe](A)p.[moe](A)[sp].[moe](A)}$$$$ (last 3' nucleoside missing),0 score 0-7
16,RNA1{[moe]([m5C])[sp].[moe](A)p.[moe](T)p.[moe](A)p.[moe](A)p.[moe](T)p.d([m5C])[sp].d([m5C])[sp].d([m5C])[sp].d(A)[sp].d(T)[sp].d(T)[sp].d(A)[sp].d(T)[sp].d(A)[sp].d([m5C])[sp].[moe](A)p.[moe](A)[sp].[moe](A)}$$$$ (last 3' nucleoside missing),0 score 0-7
17,RNA1{[moe](G)[sp].[moe](A)p.[moe]([m5C])p.[moe]([m5C])p.[moe](G)p.[moe](A)p.d(A)[sp].d(T)[sp].d(T)[sp].d([m5C])[sp].d(T)[sp].d(A)[sp].d(T)[sp].d(T)[sp].d(T)[sp].d(T)[sp].[moe](A)p.[moe](T)[sp].[moe](A)}$$$$ (last 3' nucleoside missing),0 score 0-7
18,RNA1{[moe]([m5C])[sp].[moe](T)p.[moe](G)p.[moe](T)p.[moe](T)p.d(T)[sp].d(G)[sp].d(G)[sp].d(G)[sp].d(T)[sp].d([m5C])[sp].d(T)[sp].d([m5C])[sp].d(T)[sp].d(T)[sp].[moe](A)p.[moe](G)p.[moe]([m5C])[sp].[moe](T)}$$$$ (last 3' nucleoside missing),2.67 score 0-7
19,RNA1{[moe]([m5C])[sp].[moe](G)p.[moe](A)p.[moe](A)p.[moe](T)p.d(T)[sp].d([m5C])[sp].d(T)[sp].d(A)[sp].d(T)[sp].d(T)[sp].d(T)[sp].d(T)[sp].d(A)[sp].d(T)[sp].[moe](A)p.[moe](A)p.[moe](A)[sp].[moe](T)}$$$$ (last 3' nucleoside missing),1.67 score 0-7
20,RNA1{[moe](T)[sp].[moe](G)p.[moe]([m5C])p.[moe](T)p.[moe]([m5C])p.d(A)[sp].d([m5C])[sp].d(T)[sp].d(G)[sp].d(T)[sp].d([m5C])[sp].d([m5C])[sp].d(T)[sp].d(A)[sp].d(T)[sp].[moe](T)p.[moe](G)p.[moe](A)[sp].[moe](A)}$$$$ (last 3' nucleoside missing),4 score 0-7
21,RNA1{[moe](T)[sp].[moe](T)p.[moe](T)p.[moe](G)p.[moe]([m5C])p.[moe]([m5C])p.d(A)[sp].d(T)[sp].d(T)[sp].d(T)[sp].d([m5C])[sp].d(T)[sp].d(A)[sp].d(T)[sp].d(A)[sp].d(A)[sp].[moe]([m5C])p.[moe](T)[sp].[moe]([m5C])}$$$$ (last 3' nucleoside missing),0 score 0-7
22,RNA1{[moe](A)[sp].[moe]([m5C])p.[moe]([m5C])p.[moe]([m5C])p.[moe](A)p.d(G)[sp].d(T)[sp].d(T)[sp].d(T)[sp].d(T)[sp].d(T)[sp].d(T)[sp].d([m5C])[sp].d(A)[sp].d(T)[sp].[moe](T)p.[moe](G)p.[moe]([m5C])[sp].[moe](A)}$$$$ (last 3' nucleoside missing),0 score 0-7
23,RNA1{[moe]([m5C])[sp].[moe](G)p.[moe](A)p.[moe](A)p.d(T)[sp].d(T)[sp].d([m5C])[sp].d(T)[sp].d(A)[sp].d(T)[sp].d(T)[sp].d(T)[sp].d(T)[sp].d(A)[sp].[moe](T)p.[moe](A)p.[moe](A)p.[moe](A)[sp].[moe](T)}$$$$ (last 3' nucleoside missing),1 score 0-7
24,RNA1{[moe](A)[sp].[moe](T)p.[moe](A)p.[moe](T)p.[moe](T)p.d(T)[sp].d(T)[sp].d(T)[sp].d([m5C])[sp].d(T)[sp].d(A)[sp].d([m5C])[sp].d(A)[sp].d([m5C])[sp].d(T)[sp].[moe](G)p.[moe]([m5C])p.[moe](T)[sp].[moe](G)}$$$$ (last 3' nucleoside missing),1 score 0-7
25,RNA1{[moe](A)[sp].[moe](T)p.[moe](A)p.[moe](T)p.[moe](T)p.[moe](T)p.d(T)[sp].d(T)[sp].d([m5C])[sp].d(T)[sp].d(A)[sp].d([m5C])[sp].d(A)[sp].d([m5C])[sp].d(T)[sp].d(G)[sp].[moe]([m5C])p.[moe](T)[sp].[moe](G)}$$$$ (last 3' nucleoside missing),2 score 0-7
26,RNA1{[moe](A)[sp].[moe](T)p.[moe](G)p.[moe](T)p.d(A)[sp].d(A)[sp].d([m5C])[sp].d([m5C])[sp].d(T)[sp].d(T)[sp].d(T)[sp].d(A)[sp].d(T)[sp].d(A)[sp].[moe]([m5C])p.[moe](A)p.[moe](T)p.[moe](T)[sp].[moe](T)}$$$$ (last 3' nucleoside missing),0 score 0-7
